Results on 20 compounds are retold here after PMC5420417, “Inhibitory Effect of Chemical Constituents Isolated from Artemisia iwayomogi on Polyol Pathway and Simultaneous Quantification of Major Bioactive Compounds” (BioMed Research International, 2017).

As a reminder, the IC50 is the concentration needed to halve the response being measured.

Where two headings read alike, the source gives them in different places.

Assay [1] relates to advanced glycation endproducts (AGEs) formation. The assay can be described thus: AGEs formation inhibitory activity, bovine serum albumin with fructose and glucose, fluorescence. The following applies: for IC50: ND = not detected. Type of assay: biochemical. The protocol:
Inhibition of AGEs formation was determined by an assay containing bovine serum albumin (10 mg/mL) in 50 mM phosphate buffer (pH 7.4) with 0.02% sodium azide, to which 0.4 M fructose and glucose was added. The assay mixture was incubated at 60°C for 2 days. After incubating, the reaction was measured on Fluorescence in a 96-black-well plate (excitation wavelength 350 nm, emission wavelength 450 nm). Aminoguaidine (AG) was used as a positive control.
(§1) Inhibition (%): (Ac − As/Ac) × 100. In AR inhibition activity, Ac is absorbance of control and As is absorbance of samples. In AGEs formation inhibition activity, Ac is fluorescence of control and As is fluorescence of samples. […] IC50 values were calculated from the least-squares regression line of the log of concentration plotted against residual activity. All assays were performed in triplicate. Data was presented as mean ± standard deviation (SD).

Assay [2] has as its target T1, aldose reductase (AR) (Rattus norvegicus, UniProt P07943).
T1 construct: The rat lenses were homogenized in 0.1 M sodium phosphate buffer (pH 6.2) and centrifuged; from tissue; host or cells: lens of Sprague-Dawley rats (homogenate supernatant)
The assay can be described thus: Aldose reductase (AR) inhibitory activity, rat lens homogenate, decrease of β-NADPH absorption at 340 nm. Type of assay: biochemical, Sprague-Dawley rats. The protocol:
Rat lenses (one lens per 0.5 mL sodium buffer) were obtained from Sprague-Dawley rats (weighing 250~280 g). The rat lenses were homogenized in 0.1 M sodium phosphate buffer (pH 6.2) and centrifuged at 10,000 rpm (4°C, 20 min). After centrifugation, the supernatant was used as an enzyme. AR activity was spectrophotometrically determined by measuring the decrease in the absorption of β-NADPH at 340 nm for a 4 min period using DL-glyceraldehydes as substrates. The assay mixture contained 1.6 mM β-NADPH, 0.1 M potassium phosphate buffer (pH 7.0), AR homogenate, 4 M ammonium sulfate, 0.025 M DL-glyceraldehyde, and the sample in 100% DMSO. The total volume of the assay mixture was 0.3 mL and the reaction was performed in a 96-well plate. 3,3′-Tetramethylene glutaric acid (TMG), a typical AR inhibitor, was used as a positive control.
as §1

Assay [3] relates to AR. Details: method as in PMID 21092751, PMID 18379080. The following applies: previous literature ref 24, 38; cited from earlier work.
[4] abbreviates: BSA 10 mg/mL, 0.4 M fructose and glucose, 60°C, 2 days, mean ± SD.
Where [5] appears, read: rat lens AR, DL-glyceraldehyde substrate, mean ± SD, triplicate, read-out: IC50 AR.

As for `COc1c(O)cc2oc(-c3ccc(O)c(O)c3)c(OC3OC(CO)C(O)C(O)C3O)c(=O)c2c1O` (centres unmarked) [Compound 8, patuletin-3-O-glucoside], the IC50 in assay [1] (setting [4]) was determined as 197 ± 11 µM; in assay [2] (setting [5]) it was 3.19 ± 0.1 µM.

Take `N=C(N)NN` [AG, Aminoguaidine, reference compound]: the “IC50 AGEs formation” value in assay [1] (BSA 10 mg/mL, 0.4 M fructose and glucose, 60°C, 2 days, extract and fractions, mean ± SD) was 45.85 ± 7.17^∗∗ μg/ml. The half-maximal inhibitory concentration (IC50) in assay [1] (setting [4]) was 415 ± 5.96 µM.

In the case of `O=C(/C=C/c1ccc(O)c(O)c1)OC1CC(O)(C(=O)O)CC(O)C1O` (centres unmarked) [Compound 12, 3-O-caffeoylquinic acid], the half-inhibitory concentration (IC50) in assay [1] (setting [4]) worked out at 176 ± 5.77 µM; in assay [2] (setting [5]) it was 4.54 ± 0.16 µM.

For the compound `COC(=O)C1(O)CC(OC(=O)/C=C/c2ccc(O)c(O)c2)C(O)C(OC(=O)/C=C/c2ccc(O)c(O)c2)C1` (centres unmarked) [Compound 16, 3,5-di-O-caffeoylquinic acid methyl ester], the IC50 in assay [1] (setting [4]) is 44.5 ± 4.86 µM; in assay [2] (setting [5]), 1.48 ± 0.04 µM.

With `COc1cc(-c2cc(=O)c3c(O)c(OC)c(O)cc3o2)ccc1O` [Compound 5, jaceosidin], the values for the IC50 in assay [1] (setting [4]) and in assay [2] (setting [5]) were 170 ± 16.4 µM and 111 ± 9.89 µM, respectively.

For `O=C(/C=C/c1ccc(O)c(O)c1)OC1CC(OC(=O)/C=C/c2ccc(O)c(O)c2)(C(=O)O)CC(O)C1O` (centres unmarked) [Compound 13, 1,3-di-O-caffeoylquinic acid], the IC50 was 24.9 ± 1.86 µM in assay [1] (setting [4]) and 0.22 ± 0.01 µM in assay [2] (setting [5]). The “inhibition of AR (in words)” value in assay [2] (rat lens AR) is on record as “strongest inhibition”.

Turning to `C[C@@H]1O[C@@H](OC[C@H]2O[C@@H](Oc3c(-c4ccc(O)c(O)c4)oc4cc(O)cc(O)c4c3=O)[C@H](O)[C@@H](O)[C@@H]2O)[C@H](O)[C@H](O)[C@H]1O` [Compound 11, rutin], the half-maximal inhibitory concentration (IC50) in assay [1] (setting [4]) stood at 129 ± 4.01 µM; in assay [2] (setting [5]) it was 12.5 ± 0.2 µM.

For `CC1(C)C(=O)CCC2(C)C3CCC4CC3(CCC12)CC4(O)COC1OC(CO)C(O)C(O)C1O` (centres unmarked) [Compound 19, sugeroside], the half-maximal inhibitory concentration (IC50) in assay [2] (setting [5]) was over 200 µM.

Turning to `O=c1c(O[C@@H]2O[C@H](CO)[C@@H](O)[C@H](O)[C@H]2O)c(-c2ccc(O)c(O)c2)oc2cc(O)cc(O)c12` [Compound 9, isoquercetin], the concentration for half-maximal inhibition (IC50) in assay [1] (setting [4]) came to 67.4 ± 9.95 µM; in assay [2] (setting [5]), 3.32 ± 0.21 µM.

As for `COc1cc(O)c2c(=O)cc(-c3ccc(O)cc3)oc2c1` [Compound 3, genkwanin], the values for the IC50 in assay [1] (setting [4]) and in assay [2] (setting [5]) were 312 ± 11.3 µM and over 200 µM, respectively.

For `COc1cc(OC2OC(CO)C(O)C(O)C2O)cc(O)c1C(C)=O` [Compound 20, 2,4-dihydroxy-6-methoxyacetophenone 4-O-β-D-glucopyranoside], the IC50 in assay [1] (setting [4]) is 1049 ± 0.11 µM; in assay [2] (setting [5]), over 200 µM. Further, in assay [1] (BSA/fructose/glucose), the “inhibition of AGEs formation (in words)” value is listed as “only slight inhibition”.

For `COc1c(O)cc2oc(-c3ccc(O)cc3)cc(=O)c2c1O` [Compound 4, hispidulin], the figures for the IC50 in assay [1] (setting [4]) and in assay [2] were 185.6 ± 0.2 µM and 2.93 ± 0.11 µM, respectively.

With `O=C(/C=C/c1ccc(O)c(O)c1)OC1CC(O)(C(=O)O)CC(O)C1OC(=O)/C=C/c1ccc(O)c(O)c1` (centres unmarked) [Compound 14, 3,4-di-O-caffeoylquinic acid], the figures for the 50% inhibitory concentration (IC50) in assay [1] (setting [4]) and in assay [2] (setting [5]) were 124 ± 4.25 µM and 1.9 ± 0.01 µM, respectively.

`O=C(/C=C/c1ccc(O)c(O)c1)OC1CC(O)(C(=O)O)CC(OC(=O)/C=C/c2ccc(O)c(O)c2)C1O` (centres unmarked) [Compound 15, 3,5-di-O-caffeoylquinic acid] came in with an IC50 in assay [1] (setting [4]) of 31.8 ± 0.56 µM.

For the compound `O=C(O)/C=C/c1ccc(O)c(O)c1` [caffeic acid], the “inhibitory activity on AR (in words)” value in assay [3] is “no inhibitory activity”.

Regarding `O=C(O)CC1(CC(=O)O)CCCC1` [TMG, 3,3′-Tetramethylene glutaric acid, reference compound], the “IC50 AR” value in assay [2] (rat lens AR, DL-glyceraldehyde substrate, extract and fractions, mean ± SD, triplicate) is given as 1.22 ± 0.03^∗ μg/ml. For the same compound, the IC50 in assay [2] (setting [5]) worked out at 6.58 ± 0.19 µM.

On to `COc1cc2ccc(=O)oc2cc1O[C@@H]1O[C@H](CO)[C@@H](O)[C@H](O)[C@H]1O` [Compound 2, scopolin], for which the results for the IC50 in assay [1] (setting [4]) and in assay [2] (setting [5]) were 82.4 ± 1.52 µM and 131.37 ± 0.12 µM, respectively.

Regarding `COc1cc2ccc(=O)oc2cc1O` [Compound 1, scopoletin], the IC50 in assay [1] (setting [4]) came out at 20.7 ± 1.38 µM; in assay [2] (setting [5]) it was 90.4 ± 1.91 µM. The “inhibition of AR (in words)” value in assay [2] (rat lens AR) was “minor inhibition”.

With `CC1(C)C(O)CCC2(C)C3CCC4CC3(CCC12)CC4(O)COC1OC(CO)C(O)C(O)C1O` (centres unmarked) [Compound 17, iwayoside A], the IC50 in assay [2] (setting [5]) was over 200 µM.

Consider `CC1(C)C(O)CCC2(C)C3CCC4CC3(CCC12)CC4(O)COC1OC(CO)C(O)C(O)C1O` (centres unmarked) [Compound 18, suavioside A], for which, in assay [2] (setting [5]), the IC50 is over 200 µM.
